Measured values taken from patent US20110028445A1, “Urea derivatives of benzomorphanes and related scaffolds, medicaments containing such compounds and their use” (BOEHRINGER INGELHEIM INTERNATIONAL GMBH, priority 2008, published 2011).

Target: T1, 11β-HSD1 (Homo sapiens, UniProt P28845)
T1 construct: detecting cortisol generated from cortisterone by human liver microsomes; from tissue; host or cells: human liver microsomes
Assay: In vitro inhibition of 11β-HSD1, HTRF detection of cortisol generated by human liver microsomes
Assay type: biochemical
Conditions: compound concentration 1 μM, 100% indicates no inhibition, zero or below zero indicates complete inhibition, cortisone 80 nM, 1 hour at 37° C., read-out: % CTL at 1 μM
Procedure: Briefly, compounds were incubated for 1 hour at 37° C. in Tris buffer (20 mM tris, 5 mM EDTA, pH 6.0) containing NADPH (200 μM) and cortisone (80 nM). Cortisol generated in the reaction is then detected with a competitive immunoassay, involving two HTRF conjugates: cortisol linked to XL665 and anti-cortisol antibody labeled with Europium cryptate. The incubation period for detection reaction was typically 2 hours. The amount of cortisol is determined by reading the time-resolved fluorescence of the wells (Ex 320/75 nm; Em 615/8.5 nm and 665/7.5 nm). The ratio of the two emission signals is then calculated (Em665*10000/Em615). […] Each assay also contained a calibration curve with cortisol to transform the fluorescent data into cortisol concentrations. Percent inhibition of each compound was determined relative to the carbenoxolone signal and IC50 curves were generated.
The % CTL values of some example compounds at a concentration of 1 μM are provided in the following Table 2 wherein 100% indicates no inhibition and a value of zero or below zero indicates complete inhibition. The measurement of % CTL is described hereinbefore.

T1 sequence (P28845 whole entry): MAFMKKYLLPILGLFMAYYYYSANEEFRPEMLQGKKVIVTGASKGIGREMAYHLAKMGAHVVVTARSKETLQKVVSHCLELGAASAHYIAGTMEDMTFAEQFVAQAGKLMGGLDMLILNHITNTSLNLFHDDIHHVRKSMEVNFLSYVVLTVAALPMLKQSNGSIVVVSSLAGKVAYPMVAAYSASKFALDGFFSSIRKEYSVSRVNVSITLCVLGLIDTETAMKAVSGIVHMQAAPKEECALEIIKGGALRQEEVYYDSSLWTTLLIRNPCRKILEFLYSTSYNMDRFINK

| SMILES | remaining activity at 1 µM [%] |
| --- | --- |
| CC1(C)[C@H]2Cc3ccccc3[C@]1(C)CCN2C(=O)N1CCOCC1c1ccccc1 (stereo partly shown) [Example 68] | 87 |
| CC(C)(O)[C@H]1CCCN(C(=O)N2CC[C@@]3(C)c4ccccc4C[C@@H]2C3(C)C)C1 [Example 69] | 6 |
| CC1(C)[C@H]2Cc3ccccc3[C@]1(C)CCN2C(=O)N1CCC(O)CC1 [Example 70] | -15 |
| CC1(C)[C@H]2Cc3ccccc3[C@]1(C)CCN2C(=O)N1CCC[C@@H](CO)C1 [Example 71, [(R)-3-Hydroxymethyl-piperidin-1-yl]-[(2R,6S)-6,11,11-trimethyl-1,2,5,6-tetrahydro-4H-2,6-methano-benzo[d]azocin-3-yl)-methanone] | -18 |
| CC1(C)[C@H]2Cc3ccccc3[C@]1(C)CCN2C(=O)N1CCC(O)(C(F)(F)F)CC1 [Example 72] | -11 |
| CC1(C)[C@H]2Cc3ccccc3[C@]1(C)CCN2C(=O)N1[C@@H]2CC[C@H]1C[C@](O)(C(F)(F)F)C2 [Example 73] | -6 |
| CC1(C)[C@H]2Cc3ccccc3[C@]1(C)CCN2C(=O)N1[C@@H]2CC[C@H]1C[C@@H](O)C2 [Example 74] | -17 |
| COC(=O)CC1(c2ccccc2)CCN(C(=O)N2CC[C@@]3(C)c4ccccc4C[C@@H]2C3(C)C)C1 (stereo partly shown) [Example 75] | 26 |
| CC1(C)[C@H]2Cc3ccccc3[C@]1(C)CCN2C(=O)N1[C@@H]2CC[C@H]1CC(=O)C2 [Example 76] | -10 |
| CC1(C)[C@H]2Cc3ccccc3[C@]1(C)CCN2C(=O)N1CCC(CCO)(c2ccccc2)C1 (stereo partly shown) [Example 77] | 30 |
| CC(C)(O)CC1(c2ccccc2)CCN(C(=O)N2CC[C@@]3(C)c4ccccc4C[C@@H]2C3(C)C)C1 (stereo partly shown) [Example 78] | 61 |
| CC1(C)[C@H]2Cc3ccccc3[C@]1(C)CCN2C(=O)N1[C@@H]2CC[C@H]1C[C@H](O)C2 [Example 79, (exo-3-Hydroxy-8-aza-bicyclo[3.2.1]oct-8-yl)-[(2R,6S)-6,11,11-trimethyl-1,2,5,6-tetrahydro-4H-2,6-methano-benzo[d]azocin-3-yl]-methanone] | 13 |
| CC1(C)[C@H]2Cc3ccccc3[C@]1(C)CCN2C(=O)N1[C@@H]2CC[C@H]1C[C@@](O)(C(F)(F)F)C2 [Example 80] | 70 |
